Measurements from PubChem BioAssay AID330 (DTP/NCI, 2004).
Where “and” joins values, the source holds several entries; their conditions need not be identical. Equal values may be shown once. Toxic doses and inconclusive results are not listed.

Test system: P388 leukemia ip, CD2F1 mice, survival T/C
Assay: NCI In Vivo Anticancer Drug Screen. Data for tumor model P388 Leukemia (intraperitoneal) in CD2F1 (CDF1) mice
Settings: endpoint: median survival time, higher = longer survival
Procedure, shortened: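 Mice carrying the transplanted tumor received test compound or vehicle. Survival was recorded in each group, and the value is the treated-group measurement divided by that of the vehicle-treated control group.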

[1] = dose: 50.0 mg/kg/injection, schedule: Q01DX009 (ip), vehicle: suspension in saline
[2] = dose: 100.0 mg/kg/injection, schedule: Q01DX009 (ip), vehicle: suspension in saline
[3] = dose: 200.0 mg/kg/injection, schedule: Q01DX009 (ip), vehicle: suspension in saline
[4] = dose: 60.0 mg/kg/injection, schedule: Q01DX005 (ip), vehicle: Klucel (hydroxypropylcellulose) (HPC)
[5] = dose: 120.0 mg/kg/injection, schedule: Q01DX005 (ip), vehicle: Klucel (hydroxypropylcellulose) (HPC)
[6] = dose: 240.0 mg/kg/injection, schedule: Q01DX005 (ip), vehicle: Klucel (hydroxypropylcellulose) (HPC)
[7] = dose: 30.0 mg/kg/injection, schedule: Q01DX005 (ip), vehicle: Klucel (hydroxypropylcellulose) (HPC)
[8] = dose: 60.0 mg/kg/injection, schedule: Q01DX005 (ip), vehicle: saline with Tween-80
[9] = dose: 120.0 mg/kg/injection, schedule: Q01DX005 (ip), vehicle: saline with Tween-80
[10] = dose: 240.0 mg/kg/injection, schedule: Q01DX005 (ip), vehicle: saline with Tween-80

**Q.** How did the T/C (dose: 50.0 mg/kg/injection, schedule: Q01DX005 (ip), vehicle: saline) turn out when CC1(C(=O)O)CCC2(C)CCC3(C)C(=CC(=O)C4C5(C)CCC(OC6OC(C(=O)O)C(O)C(O)C6OC6OC(C(=O)O)C(O)C(O)C6O)C(C)(C)C5CCC43C)C2C1 (stereo not drawn) was run?
**A.** 99 % of control

**Q.** What about the T/C (dose: 100.0 mg/kg/injection, schedule: Q01DX005 (ip), vehicle: saline) of the same compound?
**A.** 97 % of control

**Q.** What about the T/C (dose: 200.0 mg/kg/injection, schedule: Q01DX005 (ip), vehicle: saline) of the same compound?
**A.** 103 % of control

**Q.** O=C(OCC(Cl)(Cl)Cl)N1C2C=CC(C3OC32)N1C(=O)OCC(Cl)(Cl)Cl (stereo not drawn) was tested. Which T/C [1] did it give?
**A.** 88 % of control

**Q.** And the T/C [2]?
**A.** 90 % of control

**Q.** And the T/C [3]?
**A.** 98 % of control

**Q.** Which results are given for c1cnc(NC(Nc2cnccn2)C2CCCCC2)cn1?
**A.** T/C [4]: 96 % of control; T/C [5]: 100 % of control; T/C [6]: 107 % of control

**Q.** How did the T/C (dose: 12.5 mg/kg/injection, schedule: Q01DX009 (ip), vehicle: saline) turn out when COc1cc(CCN(C)C)c([N+](=O)[O-])cc1OC was run?
**A.** 90 % of control

**Q.** And the T/C (dose: 25.0 mg/kg/injection, schedule: Q01DX009 (ip), vehicle: saline)?
**A.** 89 % of control

**Q.** Which T/C (dose: 12.5 mg/kg/injection, schedule: Q04DX003 (ip), vehicle: saline with Tween-80) does the source give for CCCCCCCC(=O)[O][Hg][CH2]C1COC([CH2][Hg][O]C(=O)CCCCCCC)CO1 (stereo not drawn) here?
**A.** 95 % of control

**Q.** What about the T/C (dose: 16.5 mg/kg/injection, schedule: Q01DX009 (ip), vehicle: saline sonified) of the same compound?
**A.** 120 % of control

**Q.** And the T/C (dose: 16.5 mg/kg/injection, schedule: Q04DX003 (ip), vehicle: saline)?
**A.** 90 % of control

**Q.** What about the T/C (dose: 25.0 mg/kg/injection, schedule: Q04DX003 (ip), vehicle: saline with Tween-80) of the same compound?
**A.** 109 % of control

**Q.** What about the T/C (dose: 25.0 mg/kg/injection, schedule: Q04DX003 (ip), vehicle: saline) of the same compound?
**A.** 90 % of control

**Q.** What about the T/C (dose: 37.5 mg/kg/injection, schedule: Q01DX009 (ip), vehicle: saline sonified) of the same compound?
**A.** 120 % of control

**Q.** What about the T/C (dose: 37.5 mg/kg/injection, schedule: Q04DX003 (ip), vehicle: saline) of the same compound?
**A.** 90 % of control

**Q.** What about the T/C (dose: 50.0 mg/kg/injection, schedule: Q04DX003 (ip), vehicle: saline with Tween-80) of the same compound?
**A.** 118 % of control

**Q.** Which T/C (dose: 15.0 mg/kg/injection, schedule: Q01DX005 (ip), vehicle: Klucel (hydroxypropylcellulose) (HPC)) does the source give for CC1=C(C(=O)Nc2ccccc2Cl)C(c2cccc([N+](=O)[O-])c2)C(C(=O)Nc2ccccc2Cl)=C(C)N1 here?
**A.** 93 % of control

**Q.** And the T/C [7]?
**A.** 90 % of control

**Q.** And the T/C [4]?
**A.** 88 % of control

**Q.** Which results are given for CC(=O)N(c1ccccc1)c1ccccc1[N+](=O)[O-]?
**A.** T/C (dose: 50.0 mg/kg/injection, schedule: Q01DX009 (ip), vehicle: saline): 87 % of control; T/C (dose: 100.0 mg/kg/injection, schedule: Q01DX009 (ip), vehicle: saline): 86 % of control; T/C (dose: 200.0 mg/kg/injection, schedule: Q01DX009 (ip), vehicle: saline): 86 % of control

**Q.** Which results are given for Cc1ccc(N2CC(O)CN(c3ccc(C)cc3)CC(O)C2)cc1 (stereo not drawn)?
**A.** T/C [8]: 97 % of control; T/C [9]: 97 % of control; T/C [10]: 94 % of control

**Q.** What does the source list for CC1(C)CC(=O)C2=C(C1)NC(=O)CC2?
**A.** T/C [8]: 101 % of control; T/C [9]: 101 % of control; T/C [10]: 96 % of control

**Q.** COc1cc(OC)c(C2SCC(=O)N2c2nnc(C(F)(F)F)s2)c(OC)c1 (stereo not drawn) was tested. Which T/C (dose: 50.0 mg/kg/injection, schedule: Q01DX005 (ip), vehicle: saline + Tween-80 + alcohol) did it give?
**A.** 109 % of control

**Q.** What about the T/C (dose: 100.0 mg/kg/injection, schedule: Q01DX005 (ip), vehicle: saline + Tween-80 + alcohol) of the same compound?
**A.** 102 % of control

**Q.** What about the T/C (dose: 200.0 mg/kg/injection, schedule: Q01DX005 (ip), vehicle: saline + Tween-80 + alcohol) of the same compound?
**A.** 92 % of control

**Q.** Which T/C [7] does the source give for O=[N+]([O-])c1cc(C(F)(F)F)cc([N+](=O)[O-])c1Nc1ccccc1 here?
**A.** 102 % of control

**Q.** And the T/C [4]?
**A.** 107 % of control

**Q.** What about the T/C [5] of the same compound?
**A.** 104 % of control

**Q.** What about the T/C [6] of the same compound?
**A.** 103 % of control

**Q.** What does the source list for CCCCCC1NC(C(=O)O)CS1 (stereo not drawn)?
**A.** T/C [1]: 88 % of control; T/C [2]: 94 % of control; T/C [3]: 102 % of control

**Q.** O=C(O)c1cccc(-n2ncc(Cl)c(Cl)c2=O)c1 was tested. Which T/C (dose: 12.5 mg/kg/injection, schedule: Q01DX009 (ip), vehicle: saline with Tween-80) did it give?
**A.** 113 % of control

**Q.** What about the T/C (dose: 25.0 mg/kg/injection, schedule: Q01DX009 (ip), vehicle: saline with Tween-80) of the same compound?
**A.** 108 % of control

**Q.** And the T/C (dose: 50.0 mg/kg/injection, schedule: Q01DX009 (ip), vehicle: saline with Tween-80)?
**A.** 99 % of control and 104 % of control

**Q.** And the T/C (dose: 200.0 mg/kg/injection, schedule: Q01DX009 (ip), vehicle: saline with Tween-80)?
**A.** 88 % of control

**Q.** With COc1ccc2c(c1OC)C(=O)OC2C1c2cc3c(cc2CC[N+]1(C)C)OCO3 (stereo not drawn) as the compound, how does the T/C (dose: 12.5 mg/kg/injection, schedule: Q01DX001 (ip), vehicle: Klucel (hydroxypropylcellulose) (HPC)) read?
**A.** 88 % of control

**Q.** What about the T/C (dose: 25.0 mg/kg/injection, schedule: Q01DX001 (ip), vehicle: Klucel (hydroxypropylcellulose) (HPC)) of the same compound?
**A.** 92 % of control

**Q.** What about the T/C (dose: 50.0 mg/kg/injection, schedule: Q01DX001 (ip), vehicle: Klucel (hydroxypropylcellulose) (HPC)) of the same compound?
**A.** 87 % of control

**Q.** Which results are given for O=C1C2=C(Nc3cc(Cl)ccc3N2)OC1c1ccc(C2OC3=C(Nc4ccc(Cl)cc4N3)C2=O)cc1 (stereo not drawn)?
**A.** T/C [4]: 104 % of control; T/C [5]: 111 % of control; T/C [6]: 105 % of control

**Q.** For CC(=O)C(C)S(=O)(=O)O (stereo not drawn), which T/C (dose: 100.0 mg/kg/injection, schedule: Q01DX001 (ip), vehicle: saline) is on record?
**A.** 106 % of control

**Q.** And the T/C (dose: 200.0 mg/kg/injection, schedule: Q01DX001 (ip), vehicle: saline)?
**A.** 106 % of control

**Q.** What about the T/C (dose: 400.0 mg/kg/injection, schedule: Q01DX001 (ip), vehicle: saline) of the same compound?
**A.** 106 % of control

**Q.** How did the T/C (dose: 3.13 mg/kg/injection, schedule: Q01DX009 (ip), vehicle: other) turn out when COc1cc2c[n+](C)c3c4cc5c(cc4ccc3c2cc1OC)OCO5 (tested in a mixture with another compound) was run?
**A.** 103 % of control

**Q.** What about the T/C (dose: 6.25 mg/kg/injection, schedule: Q01DX009 (ip), vehicle: Klucel (hydroxypropylcellulose) (HPC)) of the same compound?
**A.** 159 % of control

**Q.** What about the T/C (dose: 6.25 mg/kg/injection, schedule: Q01DX009 (ip), vehicle: other) of the same compound?
**A.** 151 % of control

**Q.** What about the T/C (dose: 7.4 mg/kg/injection, schedule: Q01DX009 (ip), vehicle: other) of the same compound?
**A.** 116 % of control

**Q.** And the T/C (dose: 12.5 mg/kg/injection, schedule: Q01DX009 (ip), vehicle: other)?
**A.** 156 % of control

**Q.** And the T/C (dose: 25.0 mg/kg/injection, schedule: Q01DX009 (ip), vehicle: other)?
**A.** 173 % of control

**Q.** What about the T/C (dose: 50.0 mg/kg/injection, schedule: Q01DX009 (ip), vehicle: water) of the same compound?
**A.** 99 % of control

**Q.** Which T/C (dose: 50.0 mg/kg/injection, schedule: Q01DX005 (ip), vehicle: Klucel (hydroxypropylcellulose) (HPC)) does the source give for CCCCCn1[nH]nc(C(=O)OC)c1=O (tested in a mixture with another compound) here?
**A.** 102 % of control

**Q.** What about the T/C (dose: 100.0 mg/kg/injection, schedule: Q01DX005 (ip), vehicle: Klucel (hydroxypropylcellulose) (HPC)) of the same compound?
**A.** 95 % of control

**Q.** And the T/C (dose: 200.0 mg/kg/injection, schedule: Q01DX005 (ip), vehicle: Klucel (hydroxypropylcellulose) (HPC))?
**A.** 103 % of control

**Q.** Which results are given for Cc1cccc2c(/C=C/c3ccc(N(C)C)cc3)ccnc12?
**A.** T/C (dose: 25.0 mg/kg/injection, schedule: Q01DX009 (ip), vehicle: Klucel (hydroxypropylcellulose) (HPC)): 105 % of control; T/C (dose: 50.0 mg/kg/injection, schedule: Q01DX009 (ip), vehicle: Klucel (hydroxypropylcellulose) (HPC)): 105 % of control and 117 % of control; T/C (dose: 100.0 mg/kg/injection, schedule: Q01DX009 (ip), vehicle: Klucel (hydroxypropylcellulose) (HPC)): 117 % of control; T/C (dose: 200.0 mg/kg/injection, schedule: Q01DX009 (ip), vehicle: Klucel (hydroxypropylcellulose) (HPC)): 106 % of control
